Assay results reported in patent publication US20030220524A1, “Sulfur containing compounds” (priority 2000, published 2003).

Experiments:
[1] = test system: WI38 non-transformed diploid fibroblasts; assay: Fixed propidium iodide staining, flow cytometry; type: cell-based, human; conditions: 48 h
Procedure: (§1) Adherent cell lines were plated at 35×10^4 cells/60 cm^2 dish the day before exposure to compound. Suspension cells were seeded at 25×10^4 cells/mL in a 6 well dish (Falcon) the day of exposure to compound. Mononucleated, T-cell depleted normal bone marrow cells were seeded at 50×10^4 cells/mL in a 6 well dish the day of exposure to compound. Cells were exposed to solvent control or approximate MTT50 and MTT30 concentrations of the compound. After 48 h of exposure to the compound, cells were harvested, fixed in 80% ethanol for 1 h on ice and labeled with 50 μg/mL propidium iodide (Sigma). Approximately 10^6 cells were analyzed using a XL-MCL flow cytometer (Coulter Corporation, Miami, Fla.) and a FACScalibar cytometer (Becton Dickinson, San Jose, Calif.). Profiles shown are a representative.
as §1, with “cm2” for “cm^2”, “concentrations.” for “concentrations of the compound.”, “representative. Cell viability counts and Pi staining were performed as previously described (Dimitroulakos, J, Nohynek, D, Backway, K L, Hedley, D W, Yeger, H, Freedman, M H, Minden, M D and Penn, L Z: Increased sensitivity of acute myeloid leukemias to lovastatin-induced apoptosis: A potential therapeutic approach. Blood 93: 1308-18, 1999).” for “representative.”

[2] = test system: KK leukemic cell line; assay: Fixed propidium iodide staining, flow cytometry; type: cell-based, human; conditions: 48 h
Procedure: as §1
as §1, with “cm2” for “cm^2”, “concentrations.” for “concentrations of the compound.”, “representative. Cell viability counts and Pi staining were performed as previously described (Dimitroulakos, J, Nohynek, D, Backway, K L, Hedley, D W, Yeger, H, Freedman, M H, Minden, M D and Penn, L Z: Increased sensitivity of acute myeloid leukemias to lovastatin-induced apoptosis: A potential therapeutic approach. Blood 93: 1308-18, 1999).” for “representative.”

[3] = test system: Aspergillus niger and Aspergillus flavus; assay: Antifungal activity; type: cell-based; conditions: in words; dose not given
Procedure: Sulfur compounds were tested for antifungal activity against pure cultures of Aspergillus niger and Aspergillus flavus supplied by Ward's Natural Science Ltd (St. Catharines, Ontario, Canada). They were maintained on Sabouraud Dextrose Agar.
For the test, 6 agar plugs (5 mm diameter) were cut from a 5-8 day old colony and homogenized in distilled, sterilized water (2 ml). A portion of this suspension (0.5 ml) was transferred aseptically to a Petri plate with Sabouraud Dextrose Agar (15 ml) and spread evenly over the entire surface. Each plate was supplied with four evenly spaced paper disks (7 mm, Whatman Number 1 filter paper) containing the test compound (0, 25, 50 and 100 μg respectively). Each test compound was applied to the disks as a solution (50 mg compound/10 ml acetone). Control disks were treated with neat acetone (20 μl). Test plates with fungal homogenates and disks were incubated at 18-20° C. for 2 days. For each test four replicate plates were used. The diameter of the clear zone surrounding the disk was taken as the indicator of antifungal activity.

[4] = test system: leukemic cells; assay: Trypan blue exclusion in combination with MTT activity; type: cell-based, human; conditions: in words
Procedure: Adherent cells were seeded at 67×10^3 cells/mL in a 96 well plate (Falcon, Mississauga, Ontario) the day prior to exposure to compound. Suspension cells were seeded at 27×10^4 cells/mL in a 96 well plate the day of exposure to compound. Mononucleated, T-cell depleted normal bone marrow cells were seeded at 67×10^4 cells/mL in a 96 well plate the day of exposure to compound. Compounds and solvent control were added to cells and assayed in triplicate or sextuplet. Following 48 h of incubation at 37° C. with 5% CO2, 40 μL of a 5 mg/mL solution of 3-[4,5-dimethylthiazol-2-yl]-2,5-diphenyltetrazolium bromide (MTT) substrate (Sigma) in Dulbecco's phosphate-buffered saline (D-PBS) was added. After 4 h of incubation at 37° C. with 5% CO2, the resulting violet formazan precipitate was solubilized by the addition of 80 μL of a 0.01 M HCI, 10% sodium dodecyl sulfate (SDS; Sigma) solution overnight at 37° C. with 5% CO2. The plates were then analyzed using the BioRad Benchmark Microplate Reader (BioRad Laboratories, Hercules, Calif.) at 570 nm to determine the optical density of the samples. MTT data was analyzed using Prism 3.0 (GraphPad Software, Inc., San Diego, Calif.) by the Chou-Talalay method. MTT graphs shown are a representative experiment.
Leukemic cells were seeded in a 24-well plate (Nunc, Naperville, Ill.) at 25×10^4 cells/mL. Cells were then exposed in triplicate to solvent control or the approximate MTT50 concentration of compounds B, C, F, G or H at 10 μg/mL, or I at 5 μg/mL. The final solvent volume was 2.4 μL/mL of media for trypan blue exclusion assay. The compound was replenished after 48 h of treatment. Cell counts were evaluated using a 1:1 dilution of cell suspension in trypan blue (Gibco-BRL, Mississauga, Ontario, Canada). Viable and nonviable cells were counted using a hemocytometer. Cells which excluded trypan blue were counted as viable whereas stained cells were counted as nonviable. Trypan blue exclusion graphs shown are a representative experiment.
Leukemic cells were seeded in a 24-well plate (Nunc, Naperville, Ill.) at 25×10^4 cells/mL. Cells were then exposed in triplicate to solvent control or the approximate MTT50 concentration of compounds F (10 μg/mL), G (10 μg/mL) or 1 (5 μg/mL). The final solvent volume was 2.4 μL/mL of media for trypan blue exclusion assay. The compound was replenished after 48 h of treatment. Cell counts were evaluated using a 1:1 dilution of cell suspension in trypan blue (Gibco-BRL, Mississauga, Ontario, Canada). Viable and nonviable cells were counted using a hemocytometer. Cells which excluded trypan blue were counted as viable whereas stained cells were counted as nonviable. Trypan blue exclusion graphs shown are a representative experiment.

[5] = dose 50 uM (229 ug/mL) as printed

## CSSCC(=O)c1ccccc1 [Compound P, phenacyl methyl disulphide]
[1]; dose 50 uM
  % pre-G1 (Fixed PI): 2%
[1]; dose 150 uM
  % pre-G1 (Fixed PI): 52%

## CSCSCS(C)(=O)=O [B]
[2]; dose 107 uM (20 ug/mL)
  % pre-G1 (Fixed PI): 1.1%
[3]
  Antifungal activity: do not possess antiproliferative activity on either fungal or mammalian cells

## CSSCS(=O)(=O)c1ccc(C)cc1 [Compound C, α-p-toluenesulfonyl dimethyl disulphide]
[2]; dose 40.3 uM (20 ug/mL)
  % pre-G1 (Fixed PI): 20.6%
[4]
  Cytotoxicity to the leukemic cells (trypan blue exclusion with MTT activity): cytotoxic to the leukemic cells in a dose-dependent manner
[3]
  Antifungal activity: possess antifungal and anti-mammalian cell activity

## CS(C)(=O)=O [Compound A, dimethyl sulfone]
[2]; dose 212 uM (20 ug/mL)
  % pre-G1 (Fixed PI): 1.1%
[3]
  Antifungal activity: do not possess antiproliferative activity on either fungal or mammalian cells

## CSSCCS(C)(=O)=O [F, 2,3,6-trithiaheptane 6,6,-dioxide]
[2]; dose 91.6 uM (20 ug/mL)
  % pre-G1 (Fixed PI): 3.8%
[1]; [5]
  % G2/M (Fixed PI): 17.8%
  % pre-G1 (Fixed PI): 0.1%
[4]
  Cytotoxicity to the leukemic cells (trypan blue exclusion with MTT activity): cytotoxic to the leukemic cells in a dose-dependent manner
[3]
  Antifungal activity: do not possess antifungal activity

## CSSc1ccc([N+](=O)[O-])cc1 [M, methyl p-nitrophenyl disulphide]
[1]; dose 40 uM
  % pre-G1 (Fixed PI): 16%
[1]; dose 120 uM as printed
  % pre-G1 (Fixed PI): 119%

## COC(=O)CSSC [H, methyl 3,4-dithiopentanoate]
[2]; dose 133.4 uM (20 ug/mL)
  % pre-G1 (Fixed PI): 5.9%
[1]; dose 985 uM (150 ug/mL)
  % pre-G1 (Fixed PI): 0.7%
[4]
  Cytotoxicity to the leukemic cells (trypan blue exclusion with MTT activity): cytotoxic to the leukemic cells in a dose-dependent manner
[3]
  Antifungal activity: do not possess antifungal activity

## c1ccc(SSc2ccccc2)cc1 [D, diphenyl disulphide]
[2]; dose 91.6 uM (20 ug/mL)
  % pre-G1 (Fixed PI): 33.9%
[4]
  Cytotoxicity to the leukemic cells (trypan blue exclusion with MTT activity): cytotoxic to the leukemic cells in a dose-dependent manner
[3]
  Antifungal activity: do not possess antifungal activity

## CSSCOC(C)=O [I, 2,3-dithiabutyl acetate]
[2]; dose 65.7 uM (10 ug/mL)
  % pre-G1 (Fixed PI): 48.4%
[4]
  Cytotoxicity to the leukemic cells (trypan blue exclusion with MTT activity): cytotoxic to the leukemic cells in a dose-dependent manner
[3]
  Antifungal activity: possess antifungal and anti-mammalian cell activity

## CS(=O)(=O)CSCS(C)(=O)=O [G, 2,4,6-trithiaheptane 2,2,6,6-tetraoxide]
[2]; dose 91.6 uM (20 ug/mL)
  % pre-G1 (Fixed PI): 3.8%
[3]
  Antifungal activity: do not possess antiproliferative activity on either fungal or mammalian cells

## CSCSSC [Compound N, 2,3,5-trithiahexane]
[2]; dose 50 uM
  % G2 increase (Fixed PI): +4%
  % pre-G1 (Fixed PI): 13%
[2]; dose 150 uM
  % G2 increase (Fixed PI): +5%
  % pre-G1 (Fixed PI): 10%
[1]; dose 50 uM
  % G2 increase (Fixed PI): +7%
  % pre-G1 (Fixed PI): 2%
[1]; dose 150 uM
  % G2 increase (Fixed PI): +25%
  % pre-G1 (Fixed PI): 4%

## CS(=O)(=O)CSSc1ccccc1 [E, 5-phenyl-2,4,5-trithiapentane 2,2-dioxide]
[2]; dose 85.3 uM (20 ug/mL)
  % pre-G1 (Fixed PI): 34.7%
[4]
  Cytotoxicity to the leukemic cells (trypan blue exclusion with MTT activity): cytotoxic to the leukemic cells in a dose-dependent manner
[3]
  Antifungal activity: possess antifungal and anti-mammalian cell activity

## CCC(=O)OCSSc1ccccc1 [Compound Q, 1-phenyl-1,2-dithiapropyl propionate]
[2]; dose 20 uM
  % pre-G1 (Fixed PI): 15%
[2]; dose 40 uM
  % G2 increase (Fixed PI): −4%
  % pre-G1 (Fixed PI): 43%
[1]; dose 20 uM
  % G2 increase (Fixed PI): +3%
  % pre-G1 (Fixed PI): 1%
[1]; dose 40 uM
  % G2 increase (Fixed PI): +10%
  % pre-G1 (Fixed PI): 1%
[3]
  Antifungal activity: potent antifungal compound
